Test results as given in article PMC12587574, “Mass balance, pharmacokinetics, metabolism, and excretion of radiolabeled acoziborole, a potential novel treatment for human African trypanosomiasis, following single microtracer oral dose to humans” (Antimicrobial Agents and Chemotherapy, 2025).
Several values for one entry are separate records, joined by “and”; a condition that tells them apart may be missing. Equal values may be shown once. Read-outs that look alike come from different tables or passages of the source.

Key:
[1] = parameters: method as in PMID 21738803; settings: oral, mice; cited from earlier work
[2] = Excretion and mass balance of total radioactivity in urine and feces (AMS); type: in vivo, human
Protocol: (§1) Urine samples were collected before IP administration (single urine void) and then during intervals of 0–6, 6–12, 12–24, 24–48, 48–72, 72–96, 96–120, 120–168, 168–192, 192–216, and 216–240 h post-dose and for the additional 48-h collection period starting on Day 15 post-dose, that is, 336–384 h. Samples were acidified with citric acid to avoid acoziborole degradation and were refrigerated until the end of the block collection periods. The total weight and volume of urine were then recorded. At the end of each collection period, two aliquots of acidified urine (20 mL) were taken from the sample and stored in polypropylene tubes at −20°C until further analysis for total radioactivity. Two aliquots of 1 mL acidified urine were collected into tubes containing bovine serum albumin in aqueous solution (to avoid non-specific adsorption of acoziborole) and NaCl for acoziborole and SCYX-3109 assays. Urine samples for metabolite profiling were pooled for each participant according to the time intervals reported above, from 0 to 240 h.
Feces were collected before dosing and at block intervals of 0–6, 6–12, 12–24, 24–48, 48–72, 72–96, 96–120, 120–168, and 168–240 h post-dose and for five additional 48-h home collection periods starting on Days 15, 29, 59, 89, and 119. At the end of each collection period, a portion of the sample (50 g) was retained and stored at approximately −20°C until analyzed. The remaining fecal homogenate was combined with that collected at the end of each time interval and stored at approximately −20°C.
TNO (Leiden, the Netherlands) performed the analysis of total radioactivity and the metabolite profiling and identification. All blood, plasma, urine, and fecal homogenate samples were analyzed for total radioactivity by accelerator mass spectrometry (AMS). AMS analysis was performed on a 1 MV multi-element AMS, model 4110 Bo, high voltage engineering (software: AMS 155), using Australian National University (ANU) sucrose-8542 (C12H22O11) with a certified ^14C/^12C isotope ratio ([10]) as the system suitability test sample and [^14C]-paracetamol as an AMS quality check sample.
For each (diluted) sample, 5 µL blood, 5 µL plasma, 15 µL urine, or 30 mg fecal homogenate prepared in 1% CMC solution (1% CMC solution:feces ratio of 4:1) were transferred to tin foil cups. The samples were dried under a stream of nitrogen and subsequently placed in the elemental analyzer (EA, Vario Micro, Elementar, Germany), which acts as an autosampler and combustion device for the AMS. Single samples of blood, plasma, and urine were analyzed. Fecal homogenates were analyzed in triplicate, and the averaged value was reported. Total radioactivity in plasma and blood was expressed as ng equivalents (Eq) of acoziborole/mL. The LLOQ was 47.3 ngEq/mL in plasma (1.51 mBq/mL), 165.4 ngEq/mL in blood (5.28 mBq/mL), 33.8 ngEq/mL in urine (1.08 mBq/mL), and 87.1 ngEq/mL in feces (2.78 mBq/mL).
Blood-to-plasma ratio was calculated based on Cmax and AUC values. For total radioactivity excreted in urine, feces, and both combined, the following parameters were calculated: total amount of total radioactivity excreted over the time interval between t1 and t2 (Aet1−t2), Aet1−t2 expressed as a percentage of the radioactive dose administered (%Aet1−t2), CumAe, and Cum%Ae. For CumAe calculation, the recovery of total radioactivity during WinNonlin time intervals in which urine and feces were not collected was estimated using the area under the excretion rate-time curve from the end of the preceding collection interval to the start of the subsequent collection interval.

gambiense HAT infection = test system: gambiense HAT infection; parameters: method as in PMID 36460027; settings: single oral 960 mg, fasting, cited from earlier work
[3] = Distribution study of [14C]-acoziborole in Sprague-Dawley rats; type: in vivo; settings: 10 mg/kg (200 µCi/kg)
[4] = Urinary excretion / renal clearance of acoziborole and SCYX-3109 by LC-MS/MS; type: in vivo; settings: male, human, urine and plasma; CumAe0–240h/AUC0–240h; mean ± SD; 960 mg single oral dose of acoziborole; read-out: renal clearance CLr0–240h (converted)
Protocol: as §1, with “Urine samples for metabolite profiling were pooled for each participant according to the time intervals reported above, from 0 to 240 h.” left out
SGS Belgium (Wavre, Belgium) performed the analysis to determine acoziborole and SCYX-3109 concentrations, using validated bioanalytical assays with liquid chromatography with tandem mass spectrometry (LC-MS/MS) with a Supelco Ascentis Express C8, 2.7 µm, 50 × 2.1 mm I.D. separation column. In plasma, the lower limit of quantification (LLOQ) was 25 ng/mL for acoziborole and 10 ng/mL for SCYX-3109. […]

[5] = 960 mg single oral dose, N = 6, mean and SD
[6] = 960 mg single oral dose, N = 6, mean and SD, listed as [^14C]-acoziborole
[7] = t set to 1440 h (60 days), N = 6, mean and SD
[8] = t set to 1440 h (Day 60), N = 6, mean and SD, listed as [^14C]-acoziborole

CC1(C)OB(O)c2cc(NC(=O)c3ccc(F)cc3C(F)(F)F)ccc21 [acoziborole]
absolute bioavailability [1]: 55% | Cum%Ae0-240h dose, total radioactivity recovered (urine and faeces) [2, 5]: 58.6 ± 8.6% | Cum%Ae0-384h dose, total radioactivity recovered (urine and faeces) [2, 5]: 70.8 ± 8.1% | CumAe0-240h, total radioactivity in faeces [2, 5]: 488.8 ± 84.8 mgEq | CumAe0-240h, total radioactivity in urine [2, 5]: 74.0 ± 18.5 mgEq | CumAe0-240h, total radioactivity recovered (urine and faeces) [2, 5]: 562.9 ± 82.8 mgEq | CumAe0-384h, total radioactivity in faeces [2, 5]: 574.9 ± 81.4 mgEq | CumAe0-384h, total radioactivity in urine [2, 5]: 104.6 ± 28.9 mgEq | CumAe0-384h, total radioactivity recovered (urine and faeces) [2, 5]: 679.6 ± 77.5 mgEq | Cum%Ae0-240h dose, total radioactivity in faeces [2, 6]: 50.9 ± 8.8% | Cum%Ae0-240h dose, total radioactivity in urine [2, 6]: 7.7 ± 1.9% | Cum%Ae0-384h dose, total radioactivity in faeces [2, 6]: 59.9 ± 8.5% | Cum%Ae0-384h dose, total radioactivity in urine [2, 6]: 10.9 ± 3.0% | increment in excretion of total radioactivity ([2]; between Days 59 and 61 (up to 1,440 h)): < 1% | absorbed fraction, estimated ([2]; fasting condition, assuming gastrointestinal transit time of approximately 3 days): ≥ 70 % of the dose | geometric mean recovery of total radioactivity in urine and feces ([2]; over the total 1,392 h, CV% 5.5%): 87.2% | CumAe0-t, total radioactivity in faeces [2, 7]: 712.1 ± 56.4 mgEq | CumAe0-t, total radioactivity recovered (urine and faeces) [2, 7]: 838.4 ± 48.9 mgEq | Cum%Ae0-t dose, total radioactivity in faeces [2, 8]: 74.2% and 74.2 ± 5.9% | Cum%Ae0-t dose, total radioactivity recovered (urine and faeces) [2, 8]: 87.3% and 87.3 ± 5.1% | CumAe0-t, total radioactivity in urine ([2]; urine collection limited to 384 h, N = 6, mean and SD): 104.6 ± 28.9 mgEq | Cum%Ae0-t dose, total radioactivity in urine ([2]; urine collection limited to 384 h, N = 6, mean and SD, listed as [^14C]-acoziborole): 10.9% and 10.9 ± 3.0% | safety and tolerability profile (gambiense HAT infection; 208 patients): acceptable safety and tolerability profile | treatment success rate at 18 months (gambiense HAT infection; 159 out of 162 patients, evaluable population): 98.1% | treatment success rate at 18 months (gambiense HAT infection; late-stage patients, modified intention-to-treat population): 95.2% | radioactivity collected in feces during 7 days, share of total radioactivity ([3]; female rats): > 73% | radioactivity in combined feces and urine during 7 days, share of total radioactivity ([3]; female rats): > 86% | radioactivity collected in feces during 7 days, share of total radioactivity ([3]; male rats): over 66% | radioactivity in combined feces and urine during 7 days, share of total radioactivity ([3]; male rats): over 85% | CL renal [4]: 0.0333 mL/min
